The test deals with BDF1 mice, B16 melanoma ip, median survival T/C. Put plainly: NCI In Vivo Anticancer Drug Screen. Data for tumor model B16 Melanoma (intraperitoneal) in B6D2F1 (BDF1) mice. The conditions noted are these: endpoint: median survival time, higher = longer survival. A digest of the protocol:
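Read-out: survival or tumor size, given as treated/control ratio. Controls received vehicle only; animals bore transplantable tumors.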

The mark [1] stands for this setting: dose: 25.0 mg/kg/injection, schedule: Q01DX009 (ip), vehicle: Klucel (hydroxypropylcellulose) (HPC).
The mark [2] stands for this setting: dose: 50.0 mg/kg/injection, schedule: Q01DX009 (ip), vehicle: Klucel (hydroxypropylcellulose) (HPC).
Setting [3] is: dose: 100.0 mg/kg/injection, schedule: Q01DX009 (ip), vehicle: Klucel (hydroxypropylcellulose) (HPC).
Where [4] appears, read: dose: 12.5 mg/kg/injection, schedule: Q01DX009 (ip), vehicle: saline.
[5] abbreviates: dose: 25.0 mg/kg/injection, schedule: Q01DX009 (ip), vehicle: saline.
The mark [6] stands for this setting: dose: 50.0 mg/kg/injection, schedule: Q01DX009 (ip), vehicle: saline.
The mark [7] stands for this setting: dose: 3.12 mg/kg/injection, schedule: Q01DX009 (ip), vehicle: Klucel (hydroxypropylcellulose) (HPC).
[8] abbreviates: dose: 6.25 mg/kg/injection, schedule: Q01DX009 (ip), vehicle: Klucel (hydroxypropylcellulose) (HPC).
Setting [9] is: dose: 12.5 mg/kg/injection, schedule: Q01DX009 (ip), vehicle: Klucel (hydroxypropylcellulose) (HPC).
[10] abbreviates: dose: 50.0 mg/kg/injection, schedule: Q01DX009 (ip), vehicle: saline with Tween-80.
Setting [11] is: dose: 100.0 mg/kg/injection, schedule: Q01DX009 (ip), vehicle: saline with Tween-80.
[12] abbreviates: dose: 200.0 mg/kg/injection, schedule: Q01DX009 (ip), vehicle: Klucel (hydroxypropylcellulose) (HPC).
Where [13] appears, read: dose: 100.0 mg/kg/injection, schedule: Q01DX009 (ip), vehicle: saline.
[14] abbreviates: dose: 75.0 mg/kg/injection, schedule: Q01DX009 (ip), vehicle: Klucel (hydroxypropylcellulose) (HPC).

Each structure is given as a SMILES string. “And” between values parts separate entries of the source, which are not always exact repeats. Equal entries are not always repeated. Toxic doses and inconclusive results are not listed.

Turning to `CCO/C=C1\SC(=S)N(c2cccc(O)c2)C1=O`, the T/C runs as follows: under setting [1], 102 % of control; under setting [2], 102 % of control; under setting [3], 101 % of control.

Regarding `Cc1cn(C2CC3[O][Sn]([c]4ccccc4)([c]4ccccc4)[O]CC3O2)c(=O)[nH]c1=O` (stereo not given), the T/C is, setting by setting: (dose: 6.25 mg/kg/injection, schedule: Q01DX009 (ip), vehicle: saline) 91 % of control; under setting [4], 93 % of control and 117 % of control; under setting [5], 94 % of control and 124 % of control; under setting [6], 98 % of control.

As for `CCC[CH2][Sn]1([CH2]CCC)[O]OC2(CCCCC2)[O]1`, the T/C reads like this: (dose: 1.25 mg/kg/injection, schedule: Q01DX009 (ip), vehicle: saline with Tween-80) 113 % of control; (dose: 2.5 mg/kg/injection, schedule: Q01DX009 (ip), vehicle: saline with Tween-80) 100 % of control.

For the compound `C1CCC2OCCOCCOC3CCCCC3OCCOCCOC2C1` (stereo not given), the T/C was 91 % of control and 95 % of control under setting [7]; 95 % of control and 107 % of control under setting [8]; 106 % of control and 111 % of control under setting [9]; 108 % of control and 121 % of control under setting [1]; 98 % of control under setting [2].

As to `CCCCC#CCOCC(O)CCl` (stereo not given), the T/C is, setting by setting: (dose: 3.13 mg/kg/injection, schedule: Q01DX009 (ip), vehicle: saline with Tween-80) 118 % of control; (dose: 6.25 mg/kg/injection, schedule: Q01DX009 (ip), vehicle: saline with Tween-80) 114 % of control; (dose: 25.0 mg/kg/injection, schedule: Q01DX009 (ip), vehicle: saline with Tween-80) 101 % of control.

As to `S=c1[nH]nc(NC2CCCCC2)s1`, the T/C is 97 % of control under setting [1]; 91 % of control under setting [2]; 97 % of control (dose: 100.0 mg/kg/injection, schedule: Q04DX003 (ip), vehicle: Klucel (hydroxypropylcellulose) (HPC)); 91 % of control (dose: 200.0 mg/kg/injection, schedule: Q04DX003 (ip), vehicle: Klucel (hydroxypropylcellulose) (HPC)).

In the case of `NC(=O)c1ccc(-c2c3ccccc3cc3c2ccc2ccccc23)cc1`, the T/C reads like this: under setting [10], 101 % of control; under setting [11], 96 % of control.

Regarding `CC(C)N1C(=O)C=C(c2ccc([N+](=O)[O-])cc2)C1=O`, the T/C reads like this: (dose: 12.5 mg/kg/injection, schedule: Q01DX009 (ip), vehicle: saline with Tween-80) 95 % of control; under setting [10], 99 % of control.

As for `CC(=O)[C@]1(O)Cc2c(O)c3c(c(O)c2[C@@H](OC2CC(N)C(O)C(C)O2)C1)C(=O)c1c(O)cccc1C3=O` (stereo not given in full), the T/C is, setting by setting: (dose: 0.04 mg/kg/injection, schedule: Q01DX001 (ip), vehicle: water) 105 % of control; (dose: 0.08 mg/kg/injection, schedule: Q01DX001 (ip), vehicle: water) 113 % of control and 124 % of control; (dose: 0.16 mg/kg/injection, schedule: Q01DX001 (ip), vehicle: water) 124 % of control; (dose: 0.38 mg/kg/injection, schedule: Q01DX001 (ip), vehicle: water) 124 % of control.

As to `O=S(=O)(c1ccc(NC(=S)N/N=C/c2ccccc2O)cc1)N1CCCCC1`, the T/C was 87 % of control (dose: 25.0 mg/kg/injection, schedule: Q01DX009 (ip), vehicle: olive oil, sesame oil, peanut oil) and 87 % of control (dose: 50.0 mg/kg/injection, schedule: Q01DX009 (ip), vehicle: olive oil, sesame oil, peanut oil).

With `S=C(NNc1ccccc1)Nc1ccccc1`, the T/C is, setting by setting: under setting [1], 97 % of control; under setting [2], 106 % of control.

Regarding `CNC(=O)Nc1ccc(Cl)cc1C`, the T/C is 95 % of control under setting [1]; 97 % of control under setting [2]; 92 % of control and 121 % of control under setting [3].

With `Cc1cc2nc(-c3ccccc3O)[nH]c2cc1C`, the T/C runs as follows: under setting [3], 93 % of control and 94 % of control; under setting [12], 94 % of control and 106 % of control.

Regarding `NC(CC(=O)O)C(=O)OCc1ccccc1` (stereo not given), the T/C runs as follows: under setting [5], 95 % of control; under setting [6], 108 % of control; under setting [13], 114 % of control; (dose: 200.0 mg/kg/injection, schedule: Q01DX009 (ip), vehicle: saline) 105 % of control.

In the case of `Cc1cc(Cl)ccc1NC(=O)Nc1ccccc1Cl`, the T/C (dose: 18.8 mg/kg/injection, schedule: Q01DX009 (ip), vehicle: Klucel (hydroxypropylcellulose) (HPC)) was 104 % of control; the T/C (dose: 37.5 mg/kg/injection, schedule: Q01DX009 (ip), vehicle: Klucel (hydroxypropylcellulose) (HPC)) was 91 % of control; the T/C under setting [14] was 94 % of control.

`CCOC(=O)c1c[nH]c2oc(/C=N/N3CC(CN4CCOCC4)OC3=O)cc2c1=O` (stereo not given): the T/C runs as follows: under setting [4], 95 % of control; under setting [5], 98 % of control; under setting [6], 97 % of control; under setting [13], 105 % of control.

In the case of `Cc1c(Cl)cccc1NC(=O)c1cccc([N+](=O)[O-])c1`, the T/C under setting [14] is 95 % of control; the T/C (dose: 150.0 mg/kg/injection, schedule: Q01DX009 (ip), vehicle: Klucel (hydroxypropylcellulose) (HPC)) was 87 % of control; the T/C (dose: 300.0 mg/kg/injection, schedule: Q01DX009 (ip), vehicle: Klucel (hydroxypropylcellulose) (HPC)) is 91 % of control.

`CCOC(=O)/C=C/C(=O)NCC(N)C(=O)O` (stereo not given): the T/C is 96 % of control (dose: 6.25 mg/kg/injection, schedule: Q01DX009 (ip), vehicle: distilled water + Tween-80); 88 % of control (dose: 12.5 mg/kg/injection, schedule: Q01DX009 (ip), vehicle: distilled water + Tween-80); 104 % of control (dose: 25.0 mg/kg/injection, schedule: Q01DX009 (ip), vehicle: distilled water + Tween-80); 88 % of control (dose: 50.0 mg/kg/injection, schedule: Q01DX009 (ip), vehicle: distilled water + Tween-80); 98 % of control (dose: 100.0 mg/kg/injection, schedule: Q01DX009 (ip), vehicle: distilled water + Tween-80).

For the compound `Nc1ccc(-c2ccc(N)c([N+](=O)[O-])c2)cc1[N+](=O)[O-]`, the T/C runs as follows: under setting [11], 100 % of control; (dose: 200.0 mg/kg/injection, schedule: Q01DX009 (ip), vehicle: saline with Tween-80) 97 % of control; (dose: 400.0 mg/kg/injection, schedule: Q01DX009 (ip), vehicle: saline with Tween-80) 105 % of control.

`Cc1ccc(N(CCCl)CCCl)cc1NC(=O)c1ccccc1`: the T/C reads like this: (dose: 400.0 mg/kg/injection, schedule: Q01DX009 (ip), vehicle: saline) 161 % of control; (dose: 800.0 mg/kg/injection, schedule: Q01DX009 (ip), vehicle: saline) 188 % of control.

As for `CCOC(=O)Oc1c(OC)cc(C(=O)O[C@@H]2C[C@@H]3CN4CCc5c([nH]c6cc(OC)ccc56)[C@H]4C[C@@H]3[C@H](C(=O)OC)[C@H]2OC)cc1OC`, the T/C was 98 % of control (dose: 0.09 mg/kg/injection, schedule: Q01DX009 (ip), vehicle: saline); 93 % of control (dose: 0.19 mg/kg/injection, schedule: Q01DX009 (ip), vehicle: saline); 124 % of control (dose: 0.39 mg/kg/injection, schedule: Q01DX009 (ip), vehicle: saline); 101 % of control (dose: 0.78 mg/kg/injection, schedule: Q01DX009 (ip), vehicle: saline); 112 % of control (dose: 1.56 mg/kg/injection, schedule: Q01DX009 (ip), vehicle: saline); 87 % of control under setting [8].

As for `CC(C)(C)OC(=O)NC(CCCCNC(=O)C(F)(F)F)C(=O)ON1C(=O)CCC1=O` (stereo not given), the T/C runs as follows: (dose: 25.0 mg/kg/injection, schedule: Q04DX003 (ip), vehicle: saline with Tween-80) 114 % of control; (dose: 50.0 mg/kg/injection, schedule: Q04DX003 (ip), vehicle: saline with Tween-80) 115 % of control; (dose: 100.0 mg/kg/injection, schedule: Q04DX003 (ip), vehicle: saline with Tween-80) 90 % of control.

On to `c1cc2ccc3ccc(C4CO4)c4ccc(c1)c2c34` (stereo not given), for which the T/C is, setting by setting: under setting [7], 95 % of control; under setting [8], 96 % of control; under setting [9], 100 % of control; under setting [1], 86 % of control.

On to `COc1c(NC(=O)CC(C)=O)cccc1NC(=O)CC(C)=O`, for which the T/C under setting [2] was 120 % of control, the T/C under setting [3] was 104 % of control and the T/C under setting [12] was 97 % of control.

Take `Nc1ncc(CNc2ccc(C(=O)NC(CCC(=O)O)C(=O)O)cc2)c(N)n1` (stereo not given): the T/C under setting [7] is 107 % of control; the T/C under setting [8] was 103 % of control; the T/C under setting [9] was 111 % of control; the T/C under setting [1] is 114 % of control; the T/C under setting [2] is 108 % of control.

For `CCN(CC)CCN(C)CCN(CC)CC`, the T/C is, setting by setting: under setting [6], 100 % of control; under setting [13], 94 % of control.

The values above are taken from PubChem BioAssay AID192 (DTP/NCI, 2004).
